The numbers were not newly measured in patent US20070066584A1, “Amido compounds and their use as pharmaceuticals” (priority 2005, published 2007), which cites them from elsewhere.

The target in this data set is T1, 11βHSD1 (Homo sapiens, UniProt P28845).
T1 construct: host or cells: healthy volunteers (eye; non-pigmented epithelial cells), in vivo
The following applies: healthy volunteers; after seven days of carbenoxolone treatment.

T1 sequence (P28845 whole entry): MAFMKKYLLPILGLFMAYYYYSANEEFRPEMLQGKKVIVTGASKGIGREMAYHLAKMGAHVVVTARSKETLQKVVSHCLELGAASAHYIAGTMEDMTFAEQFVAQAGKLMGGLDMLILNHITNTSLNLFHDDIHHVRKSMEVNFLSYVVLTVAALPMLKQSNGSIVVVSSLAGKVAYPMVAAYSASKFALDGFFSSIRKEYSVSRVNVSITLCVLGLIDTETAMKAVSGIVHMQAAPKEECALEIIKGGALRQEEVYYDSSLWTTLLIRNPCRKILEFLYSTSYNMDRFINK

For the compound `CC1(C)[C@@H](OC(=O)CCC(=O)O)CC[C@]2(C)[C@H]3C(=O)C=C4[C@@H]5C[C@@](C)(C(=O)O)CC[C@]5(C)CC[C@@]4(C)[C@]3(C)CC[C@@H]12` [carbenoxolone], the IOP reduced is listed as 18%.
